According to US20120157453A1, “RAF INHIBITOR COMPOUNDS AND METHODS OF USE THEREOF” (GENENTECH, INC., priority 2009, published 2012):
Like-named read-outs stand apart in the source and are kept apart here.

Key:
[1] = system: basal ERK1/2 phosphorylation in Malme-3M cells; assay: Cellular ERK 1/2 phosphorylation assay; format: cell-based; conditions: Homo sapiens, 1 h, pERK normalized to total ERK
Procedure: Inhibition of basal ERK1/2 phosphorylation was determined by the following in vitro […], which comprises incubating cells with a compound of Formula II for 1 hour and quantifying the fluorescent pERK signal on fixed cells and normalizing to total ERK signal.
Materials and Methods: Malme-3M cells were obtained from ATCC and grown in RPMI-1640 supplemented with 10% fetal bovine serum. Cells were plated in 96-well plates at 24,000 cells/well and allowed to attach for 16-20 hours at 37° C., 5% CO2. The media was removed, and DMSO-diluted compounds were added in RPMI-1640 at a final concentration of 1% DMSO. The cells were incubated with the compounds for 1 hour at 37° C., 5% CO2. The cells were washed with PBS and fixed in 3.7% formaldehyde in PBS for 15 minutes. This was followed by washing in PBS/0.05% Tween20 and permeabilizing in −20° C. 100% MeOH for 15 minutes. Cells were washed in PBS/0.05% Tween20 then blocked in Odyssey blocking buffer (LI-COR Biosciences) for 1 hour. Antibodies to phosphorylated ERK (1:400, Cell Signaling #9106, monoclonal) and total ERK (1:400, Santa Cruz Biotechnology #sc-94, polyclonal) were added to the cells and incubated 16-20 hours at 4° C. After washing with PBS/0.05% Tween20, the cells were incubated with fluorescently-labeled secondary antibodies (1:1000 goat anti-rabbit IgG-IRDye800, Rockland and 1:500 goat anti-mouse IgG-Alexa Fluor 680, Molecular Probes) for an additional hour. Cells were then washed and analyzed for fluorescence at both wavelengths using the Odyssey Infrared Imaging System (LI-COR Biosciences). Phosphorylated ERK signal was normalized to total ERK signal.

V600E full-length B-Raf = target: T1, V600E full-length B-Raf (Homo sapiens, UniProt P15056, V600E); assay: B-Raf IC50 assay (incorporation of 33P phosphate into FSBA-modified MEK); format: biochemical
T1 construct: 1 μM FSBA-MEK and 20 nM V600E full-length B-Raf; made in house; host or cells: Sf9 insect cells (baculovirus)
T1 sequence (P15056 whole entry V600E): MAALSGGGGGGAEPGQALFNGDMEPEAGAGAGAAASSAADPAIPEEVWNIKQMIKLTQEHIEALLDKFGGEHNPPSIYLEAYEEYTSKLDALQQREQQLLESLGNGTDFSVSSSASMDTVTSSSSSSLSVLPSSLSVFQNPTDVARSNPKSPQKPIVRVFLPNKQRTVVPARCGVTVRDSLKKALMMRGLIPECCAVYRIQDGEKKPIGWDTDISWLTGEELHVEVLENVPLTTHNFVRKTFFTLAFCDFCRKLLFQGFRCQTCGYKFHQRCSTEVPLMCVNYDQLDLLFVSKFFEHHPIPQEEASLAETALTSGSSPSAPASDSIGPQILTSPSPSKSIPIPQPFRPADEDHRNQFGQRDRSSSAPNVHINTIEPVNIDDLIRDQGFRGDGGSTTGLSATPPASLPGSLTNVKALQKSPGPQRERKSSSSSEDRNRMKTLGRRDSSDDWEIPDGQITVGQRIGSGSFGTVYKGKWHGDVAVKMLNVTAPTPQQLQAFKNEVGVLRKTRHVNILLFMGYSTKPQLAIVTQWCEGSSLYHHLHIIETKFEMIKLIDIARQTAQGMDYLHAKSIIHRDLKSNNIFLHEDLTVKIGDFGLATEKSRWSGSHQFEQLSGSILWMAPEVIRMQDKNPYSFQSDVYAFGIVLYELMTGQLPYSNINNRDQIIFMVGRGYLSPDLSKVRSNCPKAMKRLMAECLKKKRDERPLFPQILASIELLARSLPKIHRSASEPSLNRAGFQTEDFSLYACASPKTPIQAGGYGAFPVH
Text: Determining the activity of Raf in the sample is possible by a number of direct and indirect detection methods (US 2004/0082014). Activity of human recombinant B-Raf protein may be assessed in vitro by assay of the incorporation of radio labeled phosphate to recombinant MAP kinase (MEK), a known physiologic substrate of B-Raf, according to US 2004/0127496 and WO 03/022840. The activity/inhibition of V600E full-length B-Raf was estimated by measuring the incorporation of radio labeled phosphate from [γ-^33P]ATP into FSBA-modified wild-type MEK (see Example A).
Activity of human recombinant B-Raf protein may be assessed in vitro by assay of the incorporation of radio labeled phosphate to recombinant MAP kinase (MEK), a known physiologic substrate of B-Raf, according to US 2004/0127496 and WO 03/022840. Catalytically active human recombinant B-Raf protein is obtained by purification from sf9 insect cells infected with a human B-Raf recombinant baculovirus expression vector.
The activity/inhibition of V600E full-length B-Raf was estimated by measuring the incorporation of radio labeled phosphate from [γ-^33P]ATP into FSBA-modified wild-type MEK. The 30-μL assay mixtures contained 25 mM Na Pipes, pH 7.2, 100 mM KCl, 10 mM MgCl2, 5 mM β-glycerophosphate, 100 μM Na Vanadate, 4 μM ATP, 500 nCi [γ-^33P]ATP, 1 μM FSBA-MEK and 20 nM V600E full-length B-Raf. Incubations were carried out at 22° C. in a Costar 3365 plate (Corning). Prior to the assay, the B-Raf and FSBA-MEK were preincubated together in assay buffer at 1.5× (20 μL of 30 nM and 1.5 μM, respectively) for 15 minutes, and the assay was initiated by the addition of 10 μL of 10 μM ATP. Following the 60-minute incubation, the assay mixtures were quenched by the addition of 100 μL of 25% TCA, the plate was mixed on a rotary shaker for 1 minute, and the product was captured on a Perkin-Elmer GF/B filter plate using a Tomtec Mach III Harvester. After sealing the bottom of the plate, 35 μL of Bio-Safe II (Research Products International) scintillation cocktail were added to each well and the plate was top-sealed and counted in a Topcount NXT (Packard).

[2] = B-Raf V600E, bound less than 1 μM, read-out: IC50
[3] = Example A assay, 4 μM ATP, 20 nM enzyme, 60-minute incubation, read-out: BRAF V600E IC50

SMILES | IC50 (V600E full-length B-Raf; [2]) [nM] | IC50 (V600E full-length B-Raf; [3]) [nM] | IC50 ([1]; bound less than 500 nM) [nM] | IC50 ([1]; bound less than 1 μM) [nM] | IC50 [1] [nM] | IC50 (V600E full-length B-Raf) [nM]
CCCS(=O)(=O)Nc1ccc(F)c(NC(=O)N(C)c2ncnc3[nH]ccc23)c1F [Example 6, Propane-1-sulfonic acid {2,4-difluoro-3-[3-methyl-3-(7H-pyrrolo[2,3-d]pyrimidin-4-yl)-ureido]-phenyl}-amide] | < 1000 | 57 | – | – | – | –
CCCS(=O)(=O)Nc1ccc(F)c(NC(=O)Nc2ncnc3[nH]nc(OC)c23)c1OC [Example 8, Propane-1-sulfonic acid {4-fluoro-2-methoxy-3-[3-(3-methoxy-1H-pyrazolo[3,4-d]pyrimidin-4-yl)-ureido]-phenyl}-amide] | < 1000 | 192 | – | < 1000 | – | –
CCCS(=O)(=O)Nc1ccc(F)c(NC(=O)Nc2ncnc3[nH]ncc23)c1F [Example 11, Propane-1-sulfonic acid {2,4-difluoro-3-[3-(1H-pyrazolo[3,4-d]pyrimidin-4-yl)-ureido]-phenyl}-amide] | < 1000 | – | < 500 | < 1000 | – | 5.5
CCCS(=O)(=O)Nc1ccc(F)c(NC(=O)Nc2ncnc3[nH]ccc23)c1F [Example 12, Propane-1-sulfonic acid {2,4-difluoro-3-[3-(7H-pyrrolo[2,3-d]pyrimidin-4-yl)-ureido]-phenyl}-amide] | < 1000 | 56.2 | < 500 | < 1000 | – | –
CCCS(=O)(=O)Nc1ccc(F)c(NC(=O)Nc2ncnc3[nH]nnc23)c1F [Example 14, Propane-1-sulfonic acid {2,4-difluoro-3-[3-(3H-[1,2,3]triazolo[4,5-d]pyrimidin-7-yl)-ureido]-phenyl}-amide] | – | 1960 | – | – | – | –
CCCS(=O)(=O)Nc1ccc(F)c(NC(=O)Nc2ncnc3[nH]nc(OCCCO)c23)c1F [Example 15, Propane-1-sulfonic acid {2,4-difluoro-3-{3-[3-(3-hydroxy-propoxy)-1H-pyrazolo[3,4-d]pyrimidin-4-yl]-ureido}-phenyl)-amide] | < 1000 | 428 | – | – | – | –
CCCS(=O)(=O)Nc1ccc(F)c(NC(=O)Nc2ncnc3sccc23)c1F [Example 17, Propane-1-sulfonic acid [2,4-difluoro-3-(3-thieno[2,3-d]pyrimidin-4-yl-ureido)-phenyl]-amide] | < 1000 | 97.9 | < 500 | < 1000 | – | –
CCCS(=O)(=O)Nc1ccc(F)c(NC(=O)Nc2ncnc3oc(C)c(C)c23)c1F [Example 18, Propane-1-sulfonic acid {3-[3-(5,6-dimethyl-furo[2,3-d]pyrimidin-4-yl)-ureido]-2,4-difluoro-phenyl}-amide] | < 1000 | 431 | – | – | – | –
CCCS(=O)(=O)Nc1ccc(F)c(NC(=O)Nc2ncnc3[nH]c(=S)[nH]c23)c1F [Example 23, Propane-1-sulfonic acid {2,4-difluoro-3-[3-(8-thioxo-8,9-dihydro-7H-purin-6-yl)-ureido]-phenyl}-amide] | < 1000 | 29.2 | – | – | – | –

More lines, main results first:

IC50 (V600E full-length B-Raf; [2]) [nM] | IC50 (V600E full-length B-Raf; [3]) [nM] | SMILES | IC50 ([1]; bound less than 500 nM) [nM] | IC50 ([1]; bound less than 1 μM) [nM] | IC50 [1] [nM] | IC50 (V600E full-length B-Raf) [nM]
< 1000 | 23.9 | CCCS(=O)(=O)Nc1ccc(F)c(NC(=O)N(C)c2ncnc3[nH]cnc23)c1F [Example 1, Propane-1-sulfonic acid {2,4-difluoro-3-[3-methyl-3-(9H-purin-6-yl)-ureido]-phenyl}-amide] | < 500 | < 1000 | – | –
< 1000 | 1.3 | CCCS(=O)(=O)Nc1ccc(F)c(NC(=O)Nc2ncnc3[nH]nc(OC)c23)c1Cl [Example 2, Propane-1-sulfonic acid {2-chloro-4-fluoro-3-[3-(3-methoxy-1H-pyrazolo[3,4-d]pyrimidin-4-yl)-ureido]-phenyl}-amide] | < 500 | < 1000 | – | –
< 1000 | 3.4 | CCS(=O)(=O)Nc1ccc(F)c(NC(=O)Nc2ncnc3[nH]nc(OC)c23)c1F [Example 3, Ethanesulfonic acid {2,4-difluoro-3-[3-(3-methoxy-1H-pyrazolo[3,4-d]pyrimidin-4-yl)-ureido]-phenyl}-amide] | < 500 | < 1000 | 13.5 | –
< 1000 | 1.9 | CCS(=O)(=O)Nc1ccc(Cl)c(NC(=O)Nc2ncnc3[nH]nc(OC)c23)c1F [Example 4, Ethanesulfonic acid {4-chloro-2-fluoro-3-[3-(3-methoxy-1H-pyrazolo[3,4-d]pyrimidin-4-yl)-ureido]-phenyl}-amide] | < 500 | < 1000 | – | –
< 1000 | 3.9 | CCS(=O)(=O)Nc1ccc(F)c(NC(=O)Nc2ncnc3[nH]nc(OC)c23)c1Cl [Example 5, Ethanesulfonic acid {2-chloro-4-fluoro-3-[3-(3-methoxy-1H-pyrazolo[3,4-d]pyrimidin-4-yl)-ureido]-phenyl}-amide] | < 500 | < 1000 | 47.9 | –
< 1000 | 3.8 | CCCS(=O)(=O)Nc1ccc(F)c(NC(=O)Nc2ncnc3[nH]nc(I)c23)c1F [Example 7, Propane-1-sulfonic acid {2,4-difluoro-3-[3-(3-iodo-1H-pyrazolo[3,4-d]pyrimidin-4-yl)-ureido]-phenyl}-amide] | – | < 1000 | – | –
< 1000 | 0.9 | CCCS(=O)(=O)Nc1ccc(F)c(NC(=O)Nc2ncnc3[nH]nc(OCC)c23)c1F [Example 9, N-(3-(3-(3-Ethoxy-1H-pyrazolo[3,4-d]pyrimidin-4-yl)ureido)-2,4-difluorophenyl)propane-1-sulfonamide] | < 500 | < 1000 | – | –
< 1000 | 1.4 | CCCS(=O)(=O)Nc1ccc(F)c(NC(=O)Nc2ncnc3[nH]nc(OC)c23)c1F [Example 10, Propane-1-sulfonic acid {2,4-difluoro-3-[3-(3-methoxy-1H-pyrazolo[3,4-d]pyrimidin-4-yl)-ureido]-phenyl}-amide] | < 500 | < 1000 | – | –
< 1000 | 4.7 | CCCS(=O)(=O)Nc1ccc(F)c(NC(=O)Nc2ncnc3[nH]cnc23)c1F [Example 13, Propane-1-sulfonic acid {2,4-difluoro-3-[3-(9H-purin-6-yl)-ureido]-phenyl}-amide] | < 500 | < 1000 | – | –
< 1000 | 0.6 | CCCS(=O)(=O)Nc1ccc(Cl)c(NC(=O)Nc2ncnc3[nH]nc(OC)c23)c1F [Example 16, Propane-1-sulfonic acid {4-chloro-2-fluoro-3-[3-(3-methoxy-1H-pyrazolo[3,4-d]pyrimidin-4-yl)-ureido]-phenyl}-amide] | < 500 | < 1000 | – | –
< 1000 | 25.2 | CCCS(=O)(=O)Nc1ccc(F)c(NC(=O)Nc2ncnc3sc4c(c23)CCC4)c1F [Example 19, Propane-1-sulfonic acid {3-[3-(6,7-dihydro-5H-cyclopenta[4,5]thieno[2,3-d]pyrimidin-4-yl)-ureido]-2,4-difluoro-phenyl}-amide] | < 500 | < 1000 | 176 | –
